Values after ≈ are worked out from the molar mass of the structure shown. Active and inactive are the calls of the source. The rule behind the calls is not given here.

This is an account of results in ChEMBL document CHEMBL5584312, “Insight into the Interaction of Humulus lupulus L. Specialized Metabolites and Gastrointestinal Bitter Taste Receptors: In Vitro Study in STC-1 Cells and Molecular Docking” (J Nat Prod, 2024).

Data set [1] concerns STC-1. The data set can be described thus: Anti-obesity activity in mouse STC-1 cells assessed as increase in […] mRNA expression level at 5 to 10 ug/ml incubated for 2 hrs by RT-qPCR analysis. In kind it is functional, cell-based. The conditions noted are these: dose 5-10 µg/ml.
Data set [2] has as its system STC-1. The data set can be described thus: Anti-obesity activity in mouse STC-1 cells assessed as increase in GLP-1 secretion at 5 to 10 ug/ml incubated for 120 mins by ELISA. In kind it is functional, cell-based. The settings on record: dose 5-10 µg/ml.
In data set [3] the test system is STC-1. The data set can be described thus: Agonist activity at Tas2r in mouse STC-1 cells assessed as increase in intracellular calcium level measured every 10 sec for 5 mins by Fluo-4-AM dye based fluorescence analysis. The conditions noted are these: filed as agonist, dose 5-10 µg/ml. In kind it is cell-based. (A change in cytosolic calcium serves as a functional read-out for many receptors and channels.)

The subject of data set [4] is STC-1. Put plainly: Anti-obesity activity in mouse STC-1 cells assessed as increase in Tas2r138 mRNA expression level at 5 to 10 ug/ml incubated for 2 hrs by RT-qPCR analysis. In kind it is functional, cell-based. The conditions noted are these: dose 5-10 µg/ml. A general note: In qPCR the cycle at which signal appears reflects the starting amount.
Data set [5] is described as follows: Cytotoxicity against mouse STC-1 cells assessed as reduction in cell viability at 5 to 50 ug/ml after 2 to 24 hrs by MTT assay. In kind it is toxicity, cell-based. The settings on record: dose lower 5 µg/ml, time lower 2 hrs, dose upper 50 µg/ml, time upper 24 hrs. A general note: Formazan colour is commonly taken as a measure of viable cells.
Data set [6] can be described thus: Cytotoxicity against mouse STC-1 cells assessed as reduction in cell viability at 50 ug/ml after 2 to 24 hrs by MTT assay. The settings on record: time 2-24 hrs, dose 50 µg/ml. In kind it is toxicity, cell-based.
The nature of data set [7]: Cytotoxicity against mouse STC-1 cells assessed as reduction in cell viability after 24 hrs by MTT assay. In kind it is toxicity, cell-based.
Data set [8] can be described thus: Anti-obesity activity in mouse STC-1 cells assessed as GLP-1 secretion at 10 ug/ml incubated for 120 mins by ELISA (reference value: 13.29 +/- 1.3 pg/ml). The settings on record: dose 10 µg/ml, 2 h. In kind it is functional.
Data set [9] can be described thus: Cytotoxicity against mouse STC-1 cells assessed as cell viability at 10 ug/ml after 24 hrs by MTT assay relative to control. In kind it is toxicity, cell-based. The settings on record: at 10 µg/mL, read-out: Activity.
Data set [10] in a line: Anti-obesity activity in mouse STC-1 cells assessed as increase in GLP-1 secretion by measuring fold change at 5 to 10 ug/ml incubated for 120 mins by ELISA. The conditions noted are these: dose 5-10 µg/ml, 2 h. In kind it is functional.
Data set [11] is described as follows: Cytotoxicity against mouse STC-1 cells assessed as reduction in cell viability after 2 hrs by MTT assay. In kind it is toxicity, cell-based.
In data set [12] the test system is STC-1. The data set can be described thus: Anti-obesity activity in mouse STC-1 cells assessed as increase in GLP-1 secretion incubated for 120 mins by ELISA. In kind it is functional, cell-based. The conditions noted are these: dose 5-10 µg/ml.
Data set [13] can be described thus: Anti-obesity activity in mouse STC-1 cells assessed as GLP-1 secretion at 5 ug/ml incubated for 120 mins by ELISA (reference value: 13.29 +/- 1.3 pg/ml). In kind it is functional. The conditions noted are these: dose 5 µg/ml, 2 h.
For data set [14], the system named is STC-1. The data set can be described thus: Anti-obesity activity in mouse STC-1 cells assessed as increase in CCK secretion at 10 ug/ml incubated for 120 mins by EIA. The conditions noted are these: dose 10.0 µg/ml. In kind it is functional, cell-based.
Data set [15] relates to STC-1. The data set can be described thus: Anti-obesity activity in mouse STC-1 cells assessed as increase in Tas2r120 mRNA expression level at 5 to 10 ug/ml incubated for 2 hrs by RT-qPCR analysis. In kind it is functional, cell-based. The settings on record: dose 5-10 µg/ml.
Data set [16] in a line: Cytotoxicity against mouse STC-1 cells assessed as reduction in cell viability at 5 to 10 ug/ml after 2 to 24 hrs by MTT assay. In kind it is toxicity, cell-based. The settings on record: dose lower 5 µg/ml, time lower 2 hrs, dose upper 10 µg/ml, time upper 24 hrs.
In data set [17] the test system is STC-1. The data set can be described thus: Anti-obesity activity in mouse STC-1 cells assessed as increase in Tas2r119 mRNA expression level at 5 to 10 ug/ml incubated for 2 hrs by RT-qPCR analysis. In kind it is functional, cell-based. The conditions noted are these: dose 5-10 µg/ml.
For data set [18], the system named is STC-1. The data set can be described thus: Anti-obesity activity in mouse STC-1 cells assessed as increase in GLP-1 secretion at 10 ug/ml incubated for 120 mins by ELISA. In kind it is functional, cell-based. The conditions noted are these: dose 10.0 µg/ml.
Data set [19] relates to STC-1. Put plainly: Anti-obesity activity in mouse STC-1 cells assessed as increase in Tas2r105 mRNA expression level at 5 to 10 ug/ml incubated for 2 hrs by RT-qPCR analysis. The conditions noted are these: dose 5-10 µg/ml. In kind it is functional, cell-based.

`CC(C)=CCC1=C(O)[C@@](O)(CC=C(C)C)C(=O)C(C(=O)C(C)C)=C1O`: the result in [1] and in data set [4] was Active. Further, in data set [2], the result was inactive. The Activity result in data set [3] is “Dose-Dependent Effect”; in data set [5], “Non-Toxic”.

In general, IC50 refers to the concentration needed to halve the response being measured. On to `COc1cc(O)c(CC=C(C)C)c(O)c1C(=O)/C=C/c1ccc(O)cc1` [XANTHOHUMOL], for which the Activity result in [6] was “Toxic”; in [3], “Dose-Dependent Effect”; in data set [8], 28.39 pg/mL; in data set [12] it was “Dose-Dependent Effect”; in data set [13] it was 20.39 pg/mL. Further, the IC50 at 24 h in [7] turned out to be 8 µg/mL (≈ 22.6 µM). Moreover, the viability at 24 h, 10 ug/ml in [9] was determined as 35%. Further, the “fold change (FC)” value in [10] is around 2. In addition, the outcome in data set [4] and in data set [14] was Active. For the same compound, the IC50 at 2 h in data set [11] came out at 35.3 µg/mL (≈ 99.6 µM).

Consider `CC(C)=CCC1=C(O)C(C(=O)C(C)C)=C(O)C(CC=C(C)C)(CC=C(C)C)C1=O`, for which the result in data set [1], in data set [15], in [4], in data set [17], in [14] and in data set [18] was Active. The result in [19] was Active. Also, the results for the Activity result in data set [3] and in data set [16] were “Dose-Dependent Effect” and “Non-Toxic”, respectively.
